CCOc1nc2cccc(C(=O)OC(C)OC(=O)OC3CCCCC3)c2n1Cc1ccc(-c2ccccc2-c2nn[nH]n2)cc1 (stereo not given)
solubility (mole fraction)
Settings | 293.15 K | 298.15 K | 303.15 K | 308.15 K | 313.15 K | 323.15 K | 333.15 K | 343.15 K
in acetone | 0.00673 | 0.00783 | 0.00946 | 0.0111 | 0.0133 | – | – | –
in acetonitrile | 0.000582 | – | 0.000912 | – | 0.0016 | 0.00263 | 0.00441 | –
in ethanol | – | – | 0.00144 | – | 0.00235 | 0.00465 | 0.00824 | 0.0118

— BigSolDB 2.1
